Source: patent publication US20110046147A1, “17BETA-HYDROXYSTEROID DEHYDROGENASE TYPE 1 INHIBITORS FOR THE TREATMENT OF HORMONE-RELATED DISEASES” (UNIVERSITAT DES SAARLANDES, priority 2007, published 2011)

Assays:
17β-HSD1 = molecular target: T1, 17β-HSD1 (Homo sapiens, UniProt P14061); test: Inhibition of 17β-HSD1 (estrone to estradiol, radio-HPLC); format: biochemical; details: for IC50: human placenta enzyme, 500 nM estrone, NADH 500 μM; for Selectivity IC50 (17β-HSD2)/IC50 (17β-HSD1): ratio of IC50 values
T1 construct: In both cases, human placenta served as the enzyme source; from tissue; host or cells: human placenta
T1 sequence (P14061 1-328): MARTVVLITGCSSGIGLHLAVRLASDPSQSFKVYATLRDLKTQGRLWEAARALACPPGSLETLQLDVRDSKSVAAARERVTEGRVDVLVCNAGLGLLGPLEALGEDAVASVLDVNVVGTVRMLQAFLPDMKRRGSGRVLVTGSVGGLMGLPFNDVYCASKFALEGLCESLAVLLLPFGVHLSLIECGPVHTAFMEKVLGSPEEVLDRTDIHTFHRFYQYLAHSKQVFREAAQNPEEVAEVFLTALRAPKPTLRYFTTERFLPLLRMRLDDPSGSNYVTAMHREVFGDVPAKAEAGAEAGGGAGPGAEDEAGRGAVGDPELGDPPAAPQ
Procedure: In the 17β-HSD1 test, NADH is employed as a cosubstrate at a final concentration of 500 μM in order to avoid the product inhibition occurring with NADPH. The enzyme preparation is diluted with test buffer to such an extent that the control conversion is 10 to maximally 20% (about 1:650). As the substrate, estrone in a final concentration of 500 nM is used, of which 3 nM is tritiated. 2,4,6,7-[^3H]estrone is purchased from Perkin-Elmer, Boston. The inhibitor is added as a solution in DMSO (control: pure DMSO without inhibitor; the final concentration of DMSO in the assay is 1% in all cases).
(§1) After the reaction, the substrate and product are extracted by partitioning with ether, separated by chromatography (HPLC) and quantified by means of radiodetection.

17β-HSD2 = molecular target: T2, 17β-HSD2 (Homo sapiens, UniProt P37059); test: Inhibition of 17β-HSD2 (estradiol to estrone, radio-HPLC); format: biochemical; details: human placenta microsome fraction, 500 nM estradiol, NAD+ 1500 μM
T2 construct: from tissue; host or cells: human placenta, microsome fraction
T2 sequence (P37059 1-387): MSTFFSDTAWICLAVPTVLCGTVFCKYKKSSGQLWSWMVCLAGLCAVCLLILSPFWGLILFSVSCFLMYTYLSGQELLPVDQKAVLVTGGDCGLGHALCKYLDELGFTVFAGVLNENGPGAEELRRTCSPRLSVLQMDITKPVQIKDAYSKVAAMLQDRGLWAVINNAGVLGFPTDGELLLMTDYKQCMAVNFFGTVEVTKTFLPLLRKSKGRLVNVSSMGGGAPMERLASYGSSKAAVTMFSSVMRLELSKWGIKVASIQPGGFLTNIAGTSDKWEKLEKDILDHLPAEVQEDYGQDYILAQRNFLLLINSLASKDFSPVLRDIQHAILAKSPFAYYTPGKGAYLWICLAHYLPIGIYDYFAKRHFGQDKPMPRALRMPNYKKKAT
Procedure: Determination of the inhibitory activity of the potential inhibitors: Inhibition of 17β-HSD1 and 17β-HSD2: In both cases, human placenta served as the enzyme source (Lin, S.-X. et al., J. Biol. Chem., 267: 16182-16187 (1992)).
In the 17β-HSD2 test, the natural cosubstrate NAD^+ is employed at a final concentration of 1500 μM. The microsome fraction is diluted in test buffer, so that a control conversion of 20 to 30% results (about 1:350). As the substrate, estradiol in a final concentration of 500 nM is used, of which 3 nM is tritiated. 2,4,6,7-[^3H]estradiol is also purchased from Perkin-Elmer, Boston. The inhibitor is added as a solution in DMSO (control: pure DMSO without inhibitor; the final concentration of DMSO in the assay is […]). After the addition of the substrate, incubation is performed at 37° C. for 20 minutes. The reaction is quenched by the addition of HgCl2 (final concentration of HgCl2: 0.166 mM).
as §1

Row | SMILES | inhibition of 17β-HSD1 at a concentration of 1 μM (in words) (17β-HSD1) | IC50 (17β-HSD1) | Selectivity IC50 (17β-HSD2)/IC50 (17β-HSD1) (17β-HSD1) | IC50 (17β-HSD2)
1 | Oc1ccc(-c2cnc(-c3ccc(O)cc3)s2)cc1 [Compound 21, 4,4′-(1,3-Thiazole-2,5-diyl)diphenol] | do not show any inhibition | – | – | –
2 | Oc1ccc(-c2ccsc2-c2ccc(O)cc2)cc1 [Compound 27, 4,4′-Thiene-2,3-diyldiphenol] | do not show any inhibition | – | – | –
3 | Oc1ccc(-c2ccc(-c3ccc(O)cc3)s2)cc1 [Compound 30, 4,4′-Thiene-2,5-diyldiphenol] | do not show any inhibition | – | – | –
4 | Oc1cccc(-c2ccc(-c3cccc(O)c3)s2)c1 [Compound 31, 3,3′-Thiene-2,5-diyldiphenol] | – | 0.11 µM | 6.8 | 0.75 µM
5 | Oc1ccc(-c2csc(-c3cccc(O)c3)c2)cc1 [Compound 33, 3-[4-(4-Hydroxyphenyl)-2-thienyl]phenol] | – | 0.07 µM | 18 | 1.27 µM
6 | Oc1cccc(-c2csc(-c3cccc(O)c3)c2)c1 [Compound 34, 3,3′-Thiene-2,4-diyldiphenol] | – | 0.17 µM | 3.3 | 0.56 µM
7 | Oc1cccc(-c2nnc(-c3cccc(O)c3)o2)c1 [Compound 35, 3,3′-(1,3,4-Oxadiazole-2,5-diyl)diphenol] | do not show any inhibition | – | – | –
8 | Oc1cccc(-c2nnc(-c3cccc(O)c3)s2)c1 [Compound 36, 3,3′-(1,3,4-Thiadiazole-2,5-diyl)diphenol] | – | 0.51 µM | – | –
9 | COc1ccc(-c2nsc(-c3cccc(O)c3)n2)cc1 [Compound 38, 3-[3-(4-Methoxyphenyl)-1,2,4-thiadiazole-5-yl]phenol] | – | 0.82 µM | – | –
10 | Oc1ccc(-c2nsc(-c3ccc(O)cc3)n2)cc1 [Compound 39, 4,4′-(1,2,4-Thiadiazole-3,5-diyl)diphenol] | do not show any inhibition | – | – | –
11 | Oc1ccc(-c2nsc(-c3cccc(O)c3)n2)cc1 [Compound 40, 3-[3-(4-Hydroxyphenyl)-1,2,4-thiadiazole-5-yl]phenol] | – | 0.36 µM | 6.1 | 2.2 µM
12 | Oc1ccc(-c2cccc(-c3cccc(O)c3)c2)cc1 [Compound 43, [1,1′;3′,1″]Terphenyl-4,3″-diol] | – | 1.41 µM | 2.2 | 3.1 µM
13 | Oc1ccc(-c2ccc(-c3cccc(O)c3)cc2)cc1 [Compound 44, [1,1′;4′,1″]Terphenyl-4,3″-diol] | – | 0.24 µM | 19 | 4.5 µM
14 | Oc1cccc(-c2ccc(-c3ccc(O)c(O)c3)s2)c1 [Compound 46, 4-[5-(3-Hydroxyphenyl)-2-thienyl]benzene-1,2-diol] | – | 0.8 µM | 2.1 | 1.64 µM
15 | Oc1cccc(-c2ccc(-c3cc(F)c(O)c(F)c3)s2)c1 [Compound 48, 2,6-Difluoro-4-[5-(3-hydroxyphenyl)-2-thienyl]phenol] | – | 0.05 µM | 4.6 | 0.23 µM
16 | Oc1cccc(-c2ccc(-c3ccc(O)c(C(F)(F)F)c3)s2)c1 [Compound 49, 4-[5-(3-Hydroxyphenyl)-2-thienyl]-2-(trifluoromethyl)phenol] | – | 0.04 µM | – | –
17 | Oc1cccc(-c2ccc(-c3cccc(F)c3)s2)c1 [Compound 50, 3-[5-(3-Fluorophenyl)-2-thienyl]phenol] | – | 0.53 µM | – | –
18 | CS(=O)(=O)Nc1cccc(-c2ccc(-c3cccc(O)c3)s2)c1 [Compound 51, N-{3-[5-(3-Hydroxyphenyl)-2-thienyl]phenyl}methanesulfonamide] | – | 0.52 µM | – | –
19 | Oc1cccc(-c2ccc(-c3ccccc3)s2)c1 [Compound 52, 3-(5-Phenyl-2-thienyl)phenol] | – | 0.34 µM | 6.9 | 2.34 µM
20 | Oc1cccc(-c2ccc(-c3ccc(F)cc3)s2)c1 [Compound 54, 3-[5-(4-Fluorophenyl)-2-thienyl]phenol] | – | 0.72 µM | – | –
